Source: ChEMBL document CHEMBL1150615, “Swinhoeiamide A, a new highly active calyculin derivative from the marine sponge Theonella swinhoei” (2002)
In brackets after ≈: the same amount, converted by molar mass.

Experiments:
Type in all cases: functional
Spodoptera littoralis [1] = assay: Insecticidal activity against Spodoptera littoralis larvae dosed into hemolymph injection measured per 1000 mg of larval body weight measured after 48 hrs
Spodoptera littoralis [2] = assay: Insecticidal activity against Spodoptera littoralis larvae after 5 days by topical contact assay
Aspergillus fumigatus = assay: Antifungal activity against Aspergillus fumigatus by serial dilution assay
Cladosporium cucumerinum = assay: Antifungal activity against Cladosporium cucumerinum at 25 nmol by bioautographic method
Spodoptera littoralis [3] = assay: Insecticidal activity against Spodoptera littoralis larvae after 6 days by chronic feeding assay; settings: 144 h
Candida albicans = assay: Antifungal activity against Candida albicans by serial dilution assay

Row | Structure (SMILES) | LD50 (Spodoptera littoralis [1]) | LD50 (Spodoptera littoralis [2]) | MIC (Aspergillus fumigatus) | inhibition zone (IZ) (Cladosporium cucumerinum) | LC50 (Spodoptera littoralis [3]) | MIC (Candida albicans)
1 | COC[C@@H]([C@H](O)[C@H](O)C(=O)NCC[C@H](C)c1nc(/C=C/C[C@@H]2O[C@]3(C[C@@H](O)[C@@H]2C)O[C@H]([C@H](C[C@H](O)[C@H](C)[C@H](O)[C@H](C)/C=C(C)/C(C)=C/C=C/C(C)=C\C#N)OC)[C@H](OP(=O)(O)O)C3(C)C)co1)N(C)C [CALYCULIN A] | 1 µg |  |  |  |  | 
2 | CO[C@H]1C[C@]2(O[C@H]([C@@H](C[C@H](O)[C@H](C)[C@H](O)[C@H](C)/C=C(C)/C(C)=C/CC/C(C)=C\C(N)=O)OC)[C@H](OP(=O)(O)O)C2(C)C)O[C@H](C/C=C/c2coc(C)n2)[C@H]1C [SWINHOEIAMIDE A] | 0.98 µg | 10 µg | 1 µg/mL (≈ 1.25 µM) | 14 mm | 2.98 µg/mL (≈ 3.74 µM) | 1.2 µg/mL (≈ 1.51 µM)
